This is an account of results in patent US9446092B2, “Use of a neurofilament peptide for the treatment of glioma” (UNIVERSITE D'ANGERS, priority 2009, dated 2016).

Ends that are not written are not given here.

Data set [1] concerns primary human glioblastoma cells. Kind of data set: MTS assay on primary glioblastoma cells isolated after surgery. The data set is classed as cell-based. Particulars: 40 nM, 72 h. Here is the method:
Primary human glioblastoma cells obtained from tissue samples extracted in human brains during surgery are put in culture in a DMEM medium containing glucose, L-glutamine, 10% fetal calf serum, […] (Sigma). Cells were plated (20 000 cells per cm^2) in MW96 and let grow at 37° C. in a humidified incubator gassed with 5% CO2. The peptides and/or drugs are added 48 hours after their plating.
(§1) The effects of peptides on the proliferation of glioma cells or astrocytes were evaluated by the MTS cytotoxicity assay and by counting directly the number of cells. For the MTS assay (Promega), 500 cells were seeded in 96-well plates, incubated at 37° C. for 24 hours, and treated by the peptide at the indicated concentrations for 24, 48 and 72 hours, or with vehicle (PBS or water). Media and peptides were replaced daily. Peptides were prepared in DMEM, and paclitaxel was dissolved in DMSO at a concentration of 2 mM and further diluted into DMEM. Viability was also determined by trypan blue staining. For manual counts, cells were treated with 0.25% trypsin/0.53 mM EDTA, centrifuged, and counted with a hemacytometer following addition of trypan blue dye. At each time, 3 to 6 wells per treatment were counted.

Data set [2] is described as follows: Non tumor-bearing (control) rats, intracerebral peptide injection. The data set is classed as in vivo, rat.
Data set [3] has as its system F98 glioma cells. Briefly: MTS cytotoxicity assay. The note with it: 100 μM, 72 hours. The data set is classed as cell-based, rat. Here is the method: as §1
For data set [4], the system named is 9L glioma cells. Briefly: MTS cytotoxicity assay. The data set is classed as cell-based, rat. Particulars: 100 μM, 72 hours. Here is the method:
as §1
In general terms: Tetrazolium dyes change colour on reduction, which living cells bring about.

Data set [5] concerns F98 glioma cells. Briefly: Immunocytochemistry: peptide penetration and microtubule network. The data set is classed as cell-based, rat. The note with it: 10 μM, 6 h. As to the method: (§2) Cells were plated on coverslips and cultured in media containing biotinylated peptides (10 μM) for 6 hours. Following PBS washing, the cells were fixed for 10 min in 4% paraformaldehyde, and washed 3 times in PBS. They were then incubated for 10 min in a 0.5% triton X-100 permeabilization solution, washed 3 times in PBS before incubation in a blocking solution (5% BSA) for 15 min. Glioma cells and astrocytes were incubated overnight at 4° C. with mouse anti-B-tubulin antibody (Sigma) 1/200, and neurons with mouse anti-Bill-tubulin antibody 1/200. Tubulin and biotinylated peptides were localized using respectively Alexa 568 nm anti-mouse antibody and streptavidin Alexa 488 nm (Molecular Probes) 1/200 for 1 hour, followed by washing in PBS. The preparations were counterstained with 3 μM 4′6-diaminido-2-phenylindole (DAPI; Sigma) for 5 min, and washed twice with PBS. Coverslips were mounted with an antifading solution.
(§3) Observations were carried out with an Olympus confocal microscope (BX50) using Fluoview.3.1. Software or a Leica DMI6000 inverted microscope. Images were acquired with a CoolSNAP-HQ2 camera and analyzed with Metamorph 7.1.7.0. software. Cells that are positive for peptide staining and cells with destroyed microtubule network were counted. Experiments on each cell type were repeated at least three times, and minimums of 200 cells were analyzed for each experiment.

Data set [6] deals with 9L glioma cells. Described as above. It is filed as cell-based, rat. Particulars: 10 μM, 6 h. Here is the method: as §2, §3
The subject of data set [7] is 9L cells. Briefly: BrdU incorporation (cell proliferation). The data set is classed as cell-based, rat. Particulars: 100 μM, 72 hours. As to the method:
(§4) To assess cell proliferation, 5-bromodeoxyuridine (BrdU) immunohistochemistry was used. Cells were platted on coverslips and cultured in media containing biotinylated peptides (100 μM) for 72 hours, and incubated during 4 hours in the presence of 1 mg/mL BrdU (Sigma). Cells were then washed in PBS, fixed in 3% paraformaldehyde for 10 min and permeabilized with 1% Triton X-100 in PBS for 10 min. Cells were acidified to denature the DNA (2 N HCl, 10 min), neutralized (0.1 M sodium borate, 10 min) and then rinsed extensively in PBS. After blocking with 10% NGS (10 min) the cells were labeled with monoclonal anti-BrdU antibody (1/400) followed by Alexa 568 nm anti-mouse antibody (1/200). Nuclei were stained with 4′6-diaminido-2-phenylindole (DAPI; Sigma). […] Images were acquired with a CoolSNAP HQ2 camera and analyzed with Metamorph 7.1.7.0. software. Minimums of 200 cells were scored for BrdU incorporation, and experiments were repeated at least three times.
Background: Incorporation of labelled thymidine or its analogues reports DNA synthesis.

Data set [8] concerns F98 cells. Briefly: BrdU incorporation (cell proliferation). The data set is classed as cell-based, rat. Particulars: 100 μM, 72 hours. As to the method:
as §4

The subject of the next data set is glioma cells. Briefly: Peptide uptake by glioma cells: temperature/energy dependence and sequence specificity. The data set is classed as cell-based. As to the method:
To evaluate the internalization of fluorescein-labeled NFL-TBS40-63 peptide by FACS, glioma cells or astrocytes were seeded in 35 mm dishes and cultured for 1 hour at 37° C. in media containing fluorescein-labeled NFL-TBS40-63 peptide at increasing concentrations or with vehicle (PBS). Cells were trypsinized, washed twice in cold PBS before incubation with trypsin (1 mg/mL) during 15 min at 37° C. To investigate a possible energy-dependant mechanism for the uptake of the peptide, cells were incubated at 4° C. with 20 μM fluorescein-labeled NFL-TBS2 peptide (after 15 min of 4° C. preincubation), or with 10 mM sodium azide in the presence of 6 mM 2-deoxy-D-glucose for 1 hour to deplete cellular ATP before addition of 20 μM fluorescence-labeled NFL-TBS2 peptide. Cells were then washed once, resuspended in 500 μl containing 50 μg/mL propidium iodide (Sigma, Saint-Quentin Fallavier, France), and analyzed with FACScalibur flow cytometer. Experiment on each cell type was repeated three times. 20,000 events per sample were analyzed in each experiment.

For data set [9], the system named is 9L cells. Kind of data set: Cell death analysis by flow cytometry (Annexin V / PI). It is filed as cell-based, rat. Particulars: 100 μM, 72 hours, Annexin V/PI FACS. As to the method: (§5) To detect possible apoptotic processes, cells were seeded in 35 mm dishes and cultured in media containing biotinylated peptides (100 μM) or PBS alone for 72 hours. Paclitaxel (40 nM) was used as a positive control to induce apoptosis (Terzis et al., 1997). Cells were then trypsinized, washed in cold PBS, and stained with Annexin V-FITC (BD Pharmingen) in Annexin buffer for 15 min at room temperature. Finally, they were counterstained with 50 μg/mL propidium iodide (Sigma) and analyzed with a FACSCalibur flow cytometer. Experiment on each cell type was repeated three times. 20,000 events per sample were analyzed in each experiment.
Background: A flow cytometer gives signals particle by particle.

For data set [10], the system named is F98 cells. Described as above. The data set is classed as cell-based, rat. Particulars: 100 μM, 72 hours, Annexin V/PI FACS. Here is the method: as §5
A further data set deals with primary astrocytes. The data set is described as above. The data set is classed as cell-based, rat. The note with it: 100 μM, 72 hours, Annexin V/PI FACS. As to the method: as §5
In another data set the test system is rat neurons. Kind of data set: Immunocytochemistry: peptide penetration and microtubule network. It is filed as cell-based. The note with it: 10 μM, 6 h. As to the method:
Hippocampal neuronal cultures were prepared from newborn rat brains according to Ray et al. 1993 and Kaech and Banker 2006. Briefly, the hippocampi of animals younger than 2 days were recovered, minced and digested in 0.01% trypsin for one hour at 37° C. Dissociated cells were plated on coverslips precoated with 5 μg/ml poly-1-lysine and 7 μg/ml collagen at densities of 2×10^5/ml and incubated at 37° C. with a 5% CO2 atmosphere. Twenty-four hours later, the plating solution was replaced by B-27 neurobasal medium, and the second day cytosine arabinoside (20 μM) was added to eliminate non-neural cells. Experiments were performed 7 days after plating.
Cells were plated on coverslips and cultured in media containing biotinylated peptides (10 μM) for 6 hours. Following PBS washing, the cells were fixed for 10 min in 4% paraformaldehyde, and washed 3 times in PBS. […]
(§6) Observations were carried out with an Olympus confocal microscope (BX50) using Fluoview.3.1. […] Images were acquired with a CoolSNAP-HQ2 camera and analyzed with Metamorph 7.1.7.0. software. Cells that are positive for peptide staining and cells with destroyed microtubule network were counted. Experiments on each cell type were repeated at least three times, and minimums of 200 cells were analyzed for each experiment.

The subject of another data set is rat primary astrocytes. Described as above. The note with it: 10 μM, 6 h. The data set is classed as cell-based. As to the method:
Rat primary astrocytes were obtained from cultures of cerebral cortex as originally described (McCarthy and de Vellis, 1980). Briefly, the cerebral cortex was dissected from newborn rats and cells were recovered after tissue homogenization, trypsination, and centrifugation. They were grown during 3 weeks in DMEM media with glucose and L-glutamine (Lonza France), containing 10% fetal calf serum (Lonza France), 1% penicillin/streptomycin (Sigma) in humidified incubator gassed with 5% CO2 (37° C.).
Cells were plated on coverslips and cultured in media containing biotinylated peptides (10 μM) for 6 hours. Following PBS washing, the cells were fixed for 10 min in 4% paraformaldehyde, and washed 3 times in PBS. They were then incubated for 10 min in a 0.5% triton X-100 permeabilization solution, washed 3 times in PBS before incubation in a blocking solution (5% BSA) for 15 min. […]
as §6

Another data set relates to rat astrocytes. Kind of data set: BrdU incorporation (cell proliferation). It is filed as cell-based. The note with it: 100 μM, 72 hours. As to the method:
as §4

Turning to `CC(=O)O[C@H]1C(=O)[C@@]2(C)[C@H]([C@H](OC(=O)c3ccccc3)[C@]3(O)C[C@H](OC(=O)[C@H](O)[C@@H](NC(=O)c4ccccc4)c4ccccc4)C(C)=C1C3(C)C)[C@]1(OC(C)=O)CO[C@@H]1C[C@@H]2O` [taxol, paclitaxel], the “cell survival compared with NFL-TBS40-63 peptide (MTS)” value in data set [1] is “at the same level”.
For the compound YSSYSAPVSSSLSVRRSYSSSSGS [NFL-TBS40-63], the “cellular defects in normal brain” value in data set [2] (injected in normal brain) was “no major cellular defects”. Besides, the “clinical signs of distress (weight loss, hunched posture)” value in [2] (non tumor-bearing rats treated with the peptide) is “no clinical signs of distress”. The “elimination of the peptide from normal brain” value in data set [2] (same procedure, days 16, 24 or 30) is “rapidly eliminated and was not detectable at these time points”. Moreover, the “reduction of cell viability (MTS)” value in the data set with F98 glioma cells [3] is listed as 60.8%±2.8; in the data set with 9L glioma cells [4], 30.0%±4.4.
For “NFL-SCR: similarly labeled scrambled peptide, control scrambled sequence of NFL-TBS40-63 (SLGSPSSSVRASYSSSRSYVYSSS; also: N-terminal label (biotin or carboxyfluorescein), not given here for this peptide)”, the “total cells with altered microtubule network (spherical shape, aggregated tubulin)” value in the data set with F98 glioma cells [5] and in the data set on 9L glioma cells [6] was “didn't alter the microtubule network” throughout. Moreover, the “inhibition of BrdU incorporation” value in the data set with 9L cells [7] and in the data set on F98 cells [8] was “has no effect” throughout. The “internalization into glioma cells” value with glioma cells was “absence of internalization”. For the same compound, the apoptotic response entry with 9L cells [9], in the data set with F98 cells [10] and in the data set on primary astrocytes was “has no effect” each time. Moreover, the “cells with altered microtubule network” value in the data set on rat neurons and in the data set on rat primary astrocytes was “didn't alter the microtubule network” each time. In addition, the “effect on proliferation (BrdU incorporation)” value in the data set on rat astrocytes is on record as “has no effect”.
